According to patent US20080004290A1, “Anti-Cancer Agents” (THE UNIVERSITY OF QUEENSLAND, priority 2003, published 2008):
Where two headings read alike, the source gives them in different places.

How the values were obtained:
[1] = test system: NFF, neonatal foreskin fibroblasts; test: Cell survival assay (clonogenic survival, SRB), normal cells; assay type: cell-based, human; settings: SRB
Outline: (§1)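 Cells (5×10^3/well, RPMI 1640 with 10% FCS) treated 24 h with compound at 0.01-10 μg/mL, then washed and grown 72 h drug-free at 37 °C, 5% CO2. Survival read by SRB staining after methylated-spirit fixation, absorbance 564 nm.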

[2] = test system: MM96L melanoma cells; test: Cell survival assay (clonogenic survival, SRB); assay type: cell-based, human; settings: for SI (Selectivity Index = IC50 (NFF)/IC50 (MM96L)): NFF vs MM96L
Outline: as §1

[3] = Table 5, 24 hours with compound, further growth, read-out: IC50 NFF
[4] = Table 5, 24 hours with compound, further growth, SRB, read-out: IC50 MM96L
[5] = Table 5, Selectivity Index = IC50 (NFF)/IC50 (MM96L)
[6] = Homo sapiens, Fibroblast, NFF normal fibroblasts, 24 h with compound, further 72 h growth, read-out: IC50 (uM) NFF
[7] = Homo sapiens, MM96L, MM96L melanoma, 24 h with compound, further 72 h growth, SRB, read-out: IC50 (uM) MM96L
[8] = Table 6, 24 hours with compound, further growth, read-out: IC50 (μM) NFF
[9] = Table 6, 24 hours with compound, further growth, SRB, read-out: IC50 (μM) MM96L
[10] = Table 6, IC50 (NFF)/IC50 (MM96L)
[11] = Homo sapiens, Fibroblast, 24 h, Table 6, 24 hours with compound, further growth, read-out: IC50 (μM) NFF
[12] = Homo sapiens, MM96L, 24 h, Table 6, 24 hours with compound, further growth, SRB, read-out: IC50 (μM) MM96L
[13] = NFF normal fibroblasts, 24 h with compound, further 72 h growth, read-out: IC50 (uM) NFF
[14] = Homo sapiens, MM96L, most preferred compounds, exemplary examples, read-out: potency of IC50 against the MM96 melanoma cells
[15] = MM96L melanoma, 24 h with compound, further 72 h growth, SRB, read-out: IC50 (uM) MM96L
[16] = Table 8, 24 hours with compound, further growth, read-out: IC50 (μM) NFF
[17] = Table 8, 24 hours with compound, further growth, SRB, read-out: IC50 (μM) MM96
[18] = Table 8, IC50 (NFF)/IC50 (MM96L)

## O=C(CCCSC[C@H](NC(=O)CCc1ccccc1)C(=O)NCc1ccccc1)NO [Example 46]
[1]; [3]
  IC50: 21 ± 3 µM
[2]; [4]
  IC50: 7.4 ± 0.5 µM
[2]; [5]
  Selectivity: 2.9

## O=C(CCCCC[C@H](NC(=O)c1ccc(C(F)(F)F)cc1)C(=O)NCc1ccccc1)NO [Example 155]
[1]; [6]
  IC50: 1.61 µM
[2]; [7]
  IC50: 0.665 µM
[2]
  SI (Selectivity Index = IC50 (NFF)/IC50 (MM96L)): 2.4

## CN(C)c1ccc(C(=O)N[C@@H](CSCCCC(=O)NO)C(=O)N[C@H](c2ccccc2)[C@@H](O)c2ccccc2)cc1 [Example 76]
[1]; [8]
  IC50: 9 ± 3 µM
[2]; [9]
  IC50: 2.1 ± 0.2 µM
[2]; [10]
  Selectivity: 4.3

## CN(C)c1ccc(C(=O)N[C@@H](CSCCCC(=O)NO)C(=O)Nc2cccc3cc4ccccc4cc23)cc1 [Example 71]
[1]; [11]
  IC50: 2.2 ± 0.3 µM
[2]; [12]
  IC50: 1.7 ± 0.3 µM
[2]; [10]
  Selectivity: 1.3

## O=C(CCCCC[C@H](NC(=O)c1cc2ccccc2[nH]1)C(=O)NCc1ccccc1)NO [Example 130]
[1]; [13]
  IC50: 1.26 µM
[2]; [14]
  IC50: ≤ 0.5 µM
[2]; [15]
  IC50: 0.252 µM
[2]
  SI (Selectivity Index = IC50 (NFF)/IC50 (MM96L)): 5.0

## CN(C)c1ccc(NC(=O)[C@H](CCCCCC(=O)NO)NC(=O)OCc2ccccc2)cc1 [Example 151]
[1]; [6]
  IC50: 0.65 µM
[2]; [7]
  IC50: 0.61 µM
[2]
  SI (Selectivity Index = IC50 (NFF)/IC50 (MM96L)): 1.1

## O=C(CCCSC[C@H](NC(=O)C1CCCC1)C(=O)NCc1ccccc1)NO [Example 54]
[1]; [3]
  IC50: > 100 µM
[2]; [4]
  IC50: 21 ± 3 µM
[2]; [5]
  Selectivity: >5

## CN(C)c1ccc(C(=O)N[C@@H](CSCCCC(=O)NO)C(=O)NCc2ccccc2)cc1 [Example 73]
[1]; [11]
  IC50: 0.35 ± 0.07 µM
[2]; [12]
  IC50: 0.14 ± 0.09 µM
[2]; [10]
  Selectivity: 2.5

## O=C(CCCSC[C@H](NC(=O)c1ccccc1[N+](=O)[O-])C(=O)NCc1ccccc1)NO [Example 32]
[1]; [3]
  IC50: > 100 µM
[2]; [4]
  IC50: 10.6 ± 0.1 µM
[2]; [5]
  Selectivity: >10

## O=C(CCCCC[C@H](NC(=O)c1ccc(C(F)(F)F)cc1)C(=O)Nc1cccc2cccnc12)NO [Example 147]
[1]; [6]
  IC50: 0.696 µM
[2]; [7]
  IC50: 0.258 µM
[2]
  SI (Selectivity Index = IC50 (NFF)/IC50 (MM96L)): 2.7

## Cc1ccnc(NC(=O)[C@H](CSCCCC(=O)NO)NC(=O)/C=C/c2ccccc2)c1 [Example 99]
[1]; Homo sapiens, Fibroblast, 24 h, Table 7, 24 hours with compound, further growth, read-out: IC50 (μM) NFF
  IC50: 4 ± 0.6 µM
[2]; Homo sapiens, MM96L, 24 h, Table 7, 24 hours with compound, further growth, SRB, read-out: IC50 (μM) MM96L
  IC50: 0.6 ± 0.2 µM
[2]; Table 7, IC50 (NFF)/IC50 (MM96L)
  Selectivity: 6.5

## O=C(CCCSC[C@H](NC(=O)c1ccc(F)cc1Cl)C(=O)NCc1ccccc1)NO [Example 28]
[1]; [3]
  IC50: > 100 µM
[2]; [4]
  IC50: 28 ± 3 µM
[2]; [5]
  Selectivity: >3

## CN(C)c1ccc(C(=O)N[C@@H](CSCCCC(=O)NO)C(=O)NC2CCCC2)cc1 [Example 89]
[1]; [11]
  IC50: 2.6 ± 0.3 µM
[2]; [12]
  IC50: 1.5 ± 0.1 µM
[2]; [10]
  Selectivity: 1.7

## O=C(CCCSC[C@H](NC(=O)C(c1ccccc1)c1ccccc1)C(=O)NCc1ccccc1)NO [Example 43]
[1]; [3]
  IC50: 22 ± 2 µM
[2]; [4]
  IC50: 9.3 ± 0.3 µM
[2]; [5]
  Selectivity: 2.4

## CN(C)c1ccc(C(=O)N[C@@H](CCCCCC(=O)NO)C(=O)NCc2ccccc2)cc1 [Example 123]
[1]; [13]
  IC50: 1 ± 0.1 µM
[2]; [14]
  IC50: ≤ 0.5 µM
[2]; [15]
  IC50: 0.16 ± 0.08 µM
[2]
  SI (Selectivity Index = IC50 (NFF)/IC50 (MM96L)): 6.0

## CN(C)c1ccc(C(=O)N[C@@H](CSCCCC(=O)NO)C(=O)NC2CCN(Cc3ccccc3)CC2)cc1 [Example 90]
[1]; [11]
  IC50: 1.28 ± 0.08 µM
[2]; [12]
  IC50: 1.5 ± 0.2 µM
[2]; [10]
  Selectivity: 0.9

## O=C(CCCCC[C@H](NC(=O)OCC1c2ccccc2-c2ccccc21)C(=O)NCc1ccccc1)NO [Example 142]
[1]; [6]
  IC50: 5.37 µM
[2]; [7]
  IC50: 3.2 µM
[2]
  SI (Selectivity Index = IC50 (NFF)/IC50 (MM96L)): 1.7

## O=C(CCCSC[C@H](NC(=O)CCCc1ccccc1)C(=O)NCc1ccccc1)NO [Example 49]
[1]; [3]
  IC50: 11 ± 2 µM
[2]; [4]
  IC50: 5 ± 1 µM
[2]; [5]
  Selectivity: 2.2

## O=C(CCCSC[C@H](NC(=O)c1cnccn1)C(=O)NCc1ccccc1)NO [Example 35]
[1]; [3]
  IC50: 62 ± 5 µM
[2]; [4]
  IC50: 19 ± 2 µM
[2]; [5]
  Selectivity: 3.3

## CN(C)c1ccc(C(=O)NC(CSCCCC(=O)NO)C(=O)NCc2ccc(C(=O)NC3CCCc4ccccc43)cc2)cc1 (mixture of isomers) [Example 119]
[1]; [16]
  IC50: 1.74 µM
[2]; [17]
  IC50: 0.93 µM
[2]; [18]
  Selectivity: 1.9

## CN(C)c1ccc(NC(=O)[C@H](CCCCCC(=O)NO)NC(=O)/C=C/c2ccccc2)cc1 [Example 150]
[1]; [6]
  IC50: 0.24 µM
[2]; [7]
  IC50: 0.165 µM
[2]
  SI (Selectivity Index = IC50 (NFF)/IC50 (MM96L)): 1.5

## CN(C)c1ccc(C(=O)N[C@@H](CSCCCC(=O)NO)C(=O)Nc2cccc3c2CCCC3)cc1 [Example 66]
[1]; [11]
  IC50: 2.2 ± 0.3 µM
[2]; [12]
  IC50: 0.5 ± 0.1 µM
[2]; [14]
  IC50: ≤ 0.5 µM
[2]; [10]
  Selectivity: 4.4

## CN(C)c1ccc(C(=O)N[C@@H](CSCCCC(=O)NO)C(=O)NCc2ccc(C(=O)Nc3cccc4c3CCCC4)cc2)cc1 [Example 118]
[1]; [16]
  IC50: 3.78 µM
[2]; [17]
  IC50: 1.17 µM
[2]; [18]
  Selectivity: 3.2

## CN(C)c1ccc(C(=O)N[C@@H](CSCCCC(=O)NO)C(=O)NCc2ccc(C(=O)NCc3ccccn3)cc2)cc1 [Example 108]
[1]; [16]
  IC50: 16.9 µM
[2]; [17]
  IC50: 2.28 µM
[2]; [18]
  Selectivity: 7.4

## O=C(/C=C/c1ccccc1)N[C@@H](CSCCCC(=O)NO)C(=O)NCc1ccccc1 [Example 48]
[1]; [3]
  IC50: 0.8 ± 0.2 µM
[2]; [4]
  IC50: 0.2 ± 0.1 µM
[2]; [5]
  Selectivity: 4.0

## O=C(CCCCC[C@H](NC(=O)c1ccc([N+](=O)[O-])cc1)C(=O)NCc1ccccc1)NO (racemic) [Example 135]
[1]; [6]
  IC50: 9 ± 2 µM
[2]; [7]
  IC50: 6 ± 1 µM
[2]
  SI (Selectivity Index = IC50 (NFF)/IC50 (MM96L)): 1.5

## O=C(CCCSC[C@H](NC(=O)c1cccs1)C(=O)NCc1ccccc1)NO [Example 33]
[1]; [3]
  IC50: 9 ± 1 µM
[2]; [4]
  IC50: 2.5 ± 0.2 µM
[2]; [5]
  Selectivity: 3.6

## CN(C)c1ccc(C(=O)N[C@@H](CSCCCC(=O)NO)C(=O)N(Cc2ccccc2)Cc2ccccc2)cc1 [Example 74]
[1]; [11]
  IC50: 15.3 ± 0.6 µM
[2]; [12]
  IC50: 2.3 ± 0.2 µM
[2]; [10]
  Selectivity: 6.5

## CN(C)c1ccc(C(=O)NC(CSCCCC(=O)NO)C(=O)NC(C)(C)C)cc1 (stereo not drawn) [Example 96]
[1]; [8]
  IC50: 3.5 ± 0.5 µM
[2]; [9]
  IC50: 0.7 ± 0.2 µM
[2]; [10]
  Selectivity: 5.0
